Source: US6992079B2, “Substituted 11-phenyl-dibenzazepine compounds useful for the treatment or prevention of diseases characterized by abnormal cell proliferation” (President Fellows of Harvard College, priority 1997, dated 2006)
Read-outs that look alike come from different tables or passages of the source. Marks after values point to notes of the source that are not given here.

Columns and labels:
[1] = test system: A498; test: In-Vitro Testing SRB panel: Renal Cancer; format: cell-based; conditions: A498
[2] = test system: SF-295; test: In-Vitro Testing SRB panel: CNS Cancer; format: cell-based; conditions: SF-295
[3] = test system: NCI-H23; format: cell-based; conditions: NCI-H23
[4] = Preliminary toxicology, subcutaneous injection for 14 days; format: in vivo, CD-1 female mice; conditions: CD-1 female mice; 80 mg/kg/day s.c. 14 days
Protocol: The toxicological effects of CLT, and compounds 28, 30 and 31 were tested in CD-1 female mice. A dose of 80 mg/kg/day was given to each mouse via subcutaneous injection for a period of 14 days. Preliminary toxicological data was determined by measuring body weight, gross pathology of organs blood chemistry and histology. The vehicle used was DMF 12%+2% Tween 20 88%.

[5] = test system: A2058 metastatic melanoma; test: Mouse xenograft tumor growth; format: in vivo, CD-1 nude mice
Protocol: NCI-A2058 human melanoma cell line was grown as monolayer culture in Minimum essential medium (D-MEM) supplemented with 10% fetal bovine serum (FBS), 0.1 mM non-essential amino acid, 1.0 mM sodium pyruvate, 100U/ml penicillin, 100 μg/ml streptomycin and 0.25 μg/ml amphotericin B and L-alanyl-1-glutamine (2 mM) at 37° C. in an atmosphere of 5% CO2 in air. The tumor cells were routinely subcultured twice weekly by trypsin-EDTA treatment. The cells were harvested from subconfluent logarithmically growing culture by treatment with typsin-EDTA and counted for tumor inoculation.
An acclimation period of at least 7 days were allowed between animal receipt and commence of tumor inoculation. When the female CD-1 nude mice were more than 6-7 weeks of age (20-25 g), each mouse was subcutaneously injected with 5.0×10^6 NCI-A2058 human melanoma cells in 0.1 ml of PBS solution at the right flank of the mice to induce tumor growth.

[6] = test system: NCI-H226; format: cell-based; conditions: NCI-H226
[7] = Homo sapiens, read-out: LC50 (the source's name)

COc1cccc2c1C(c1ccccc1Cl)c1cc(Cl)ccc1N(C(=O)c1ccc([N+](=O)[O-])cc1)C2 (centres unmarked) [Compound 31]
TGI [1]: 6.86E−06 Molar
Percent Growth ([1]; log10 conc -4 Molar): −32%
Percent Growth ([1]; log10 conc -5 Molar): −11%
Percent Growth ([1]; log10 conc -6 Molar): 55%
Percent Growth ([1]; log10 conc -7 Molar): 93%
Percent Growth ([1]; log10 conc -8 Molar): 93%
GI50 ([1]; Homo sapiens): 1.19 µM
CC50 [1, 7]: > 100 µM
GI50 ([2]; Homo sapiens): 13.5 µM
CC50 [2, 7]: > 100 µM
TGI [2]: >1.00E−04 Molar
Percent Growth ([2]; log10 conc -4 Molar): 34%
Percent Growth ([2]; log10 conc -5 Molar): 52%
Percent Growth ([2]; log10 conc -6 Molar): 75%
Percent Growth ([2]; log10 conc -7 Molar): 98%
Percent Growth ([2]; log10 conc -8 Molar): 97%
GI50 ([3]; Homo sapiens): 2.65 µM
CC50 [3, 7]: > 100 µM
TGI [3]: >1.00E−04 Molar
Percent Growth ([3]; log10 conc -4 Molar): 19%
Percent Growth ([3]; log10 conc -5 Molar): 33%
Percent Growth ([3]; log10 conc -6 Molar): 62%
Percent Growth ([3]; log10 conc -7 Molar): 92%
Percent Growth ([3]; log10 conc -8 Molar): 96%
Body Weight Change [4]: 113%
Liver Weight [4]: 1.49 ± 0.04^c g
RBC [4]: 8.6 ± 1.6 10^6/mm^3
WBC [4]: 7.2 ± 1.7 10^3/mm^3
WBC, RBC, BUN and creatine levels [4]: no differences were found
tumor growth [5]: showed inhibition of tumor growth
GI50 ([6]; Homo sapiens): 3.67 µM
CC50 [6, 7]: > 100 µM
TGI [6]: >1.00E−04 Molar
Percent Growth ([6]; log10 conc -4 Molar): 13%
Percent Growth ([6]; log10 conc -5 Molar): 34%
Percent Growth ([6]; log10 conc -6 Molar): 71%
Percent Growth ([6]; log10 conc -7 Molar): 90%
Percent Growth ([6]; log10 conc -8 Molar): 90%
